Data set [1] has as its system Ovary cultured human cancer cells. Conditions: second panel, mean among sensitive cell lines, read-out: IC50 mean +/− SD; cited from earlier work.
In data set [2] the test system is Sarcoma cultured human cancer cells. Particulars: second panel, mean among sensitive cell lines, read-out: IC50 mean +/− SD; cited from earlier work.
The test system of data set [3] is Leukemia cultured human cancer cells. Particulars: mean among sensitive cell lines, cited from earlier work.
A short description of data set [4]: Allometric scaling from animal maximally tolerated doses to predict human daily oral MTD (www.truedose.app). As for the experimental part:
The allometric scaling is based on toxicity, and the toxicity is that which establishes the Maximally Tolerated Dose (MTD) in animal studies. In mice, one toxicity study established the MTD to be 35 mg/kg. […]. […] It was not expected that, as shown herein, doses markedly lower than 180 mg daily in humans would have anticancer effects.
Allometric scaling is a means by which PK results from animal studies can be used to predict human drug exposure for a range of drug doses. In this case, allometric scaling was performed using representative values from the PK studies with daily oral PCLX-001 administration for 14 or 28 days in non-human species. These inputs were analyzed with www.truedose.app to predict the Maximally Tolerated Dose we would see in this phase one clinical trial (FIG. 2). […]

The subject of data set [5] is Stomach cultured human cancer cells. Conditions: second panel, mean among sensitive cell lines, read-out: IC50 mean +/− SD; cited from earlier work.
For data set [6] the following is noted: GLP non-clinical safety testing; cited from earlier work.
In data set [7] the test system is Prostate cultured human cancer cells. Particulars: second panel, mean among sensitive cell lines, read-out: IC50 mean +/− SD; cited from earlier work.
Data set [8] has as its system Breast cultured human cancer cells. Particulars: mean among sensitive cell lines, cited from earlier work.
The nature of the next data set: in vivo. Conditions: dog, plasma, po.
Data set [9] concerns Lymphoma cultured human cancer cells. Conditions: mean among sensitive cell lines, cited from earlier work; for IC50: read-out: IC50 mean +/− SD.
The target of the next data set is human NMT2 (Homo sapiens, UniProt O60551). The experiment in a line: Inhibition of N-myristoyltransferase NMT2. It counts as biochemical.
[10] abbreviates: first panel, read-out: EC50 mean +/− SD.
Setting [11] is: second panel, read-out: IC50 mean +/− SD.

Like-named read-outs stand apart in the source and are kept apart here.

Chain of human NMT2 (O60551 whole entry): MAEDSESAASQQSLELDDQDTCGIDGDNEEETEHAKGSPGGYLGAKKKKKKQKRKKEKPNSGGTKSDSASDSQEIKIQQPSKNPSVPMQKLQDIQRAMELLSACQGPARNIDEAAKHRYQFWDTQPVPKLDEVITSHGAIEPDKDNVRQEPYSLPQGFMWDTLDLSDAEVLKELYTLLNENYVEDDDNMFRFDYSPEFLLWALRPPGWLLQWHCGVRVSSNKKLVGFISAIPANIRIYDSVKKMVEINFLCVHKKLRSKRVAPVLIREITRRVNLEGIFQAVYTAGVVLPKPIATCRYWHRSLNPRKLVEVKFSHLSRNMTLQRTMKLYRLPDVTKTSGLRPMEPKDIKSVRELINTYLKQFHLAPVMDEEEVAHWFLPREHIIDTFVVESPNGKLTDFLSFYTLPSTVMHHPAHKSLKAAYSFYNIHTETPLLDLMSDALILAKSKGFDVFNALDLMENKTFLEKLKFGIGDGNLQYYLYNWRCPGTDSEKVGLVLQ

In general, Cmax refers to the peak of the concentration-time curve. For orientation: half-life means the time needed for the level to fall by half in the phase considered. Low values mean fast loss, high ones slow loss. With `Cc1c(NS(=O)(=O)c2c(Cl)cc(-c3ccnc(N4CCNCC4)c3)cc2Cl)c(CC(C)C)nn1C` [PCLX-001, 2,6-dichloro-N-(3-isobutyl-1,5-dimethyl-1H-pyrazol-4-yl)-4-(2-(piperazin-1-yl)pyridin-4-yl)benzene sulfonamide], the IC50 in data set [1] was 76.7 ± 7.6 nM; in data set [2] it was 198 ± 134 nM; in [3] (setting [11]), 189 ± 87.8 nM; in [5], 120 ± 48.2 nM; in [7], 85.4 ± 59.2 nM; in data set [8] (setting [11]), 161 ± 47.9 nM. Further, the IC50 in data set [9] (second panel) was 138 ± 55.8 nM; in [9] (third panel) it was 230 ± 107 nM. Further, the figures for the EC50 in [3] (setting [10]), in data set [8] (setting [10]) and in data set [9] (setting [10]) were 97.9 ± 81.3 nM, 101 ± 96.4 nM and 80.9 nM, respectively. Further, the “Allometric prediction of human MTD” value is 137 mg mg/70 kg in [4] (scaled from dog MTD), 180 mg mg/70 kg in data set [4] (scaled from mouse MTD) and 1300 mg mg/70 kg in data set [4] (scaled from rat MTD). The dose limiting toxicity entry in data set [6] is reported as “diarrhea was dose limiting”. For the same molecule, in “in vivo”, the Cmax is 650 ng/mL. This molecule also had a half-life in “in vivo” of 3.8 h. Besides, the “inhibition of human NMT2” value against human NMT2 is “potent”.

The values above are taken from patent US20250161299A1, “ORAL PCLX-001 IN THE TREATMENT OF HUMAN CANCER” (PACYLEX PHARMACEUTICALS INC., priority 2022, published 2025).
